Here are results for 17 molecules from ChEMBL document CHEMBL1667808, “Substituted imidazole derivatives as novel cardiovascular agents” (Bioorg Med Chem Lett, 2011).

Experiment [1] concerns Felis catus. As to the kind of experiment: Antihypertensive activity in cat assessed as change in blood pressure at 2.5 mg/kg measured within 5 mins. The class given is functional.
Experiment [2] concerns Felis catus. As to the kind of experiment: Antihypertensive activity in cat assessed as change in blood pressure at 2.5 mg/kg measured after 5 mins. It is filed as functional.
Experiment [3] deals with Felis catus. Kind of experiment: Hypotensive activity in cat assessed as decrease carotid occlusion response at 2.5 mg/kg. It is filed as functional, organism-based. Also noted: dose 2.5 mg/kg.
Experiment [4] relates to Felis catus. Kind of experiment: Hypotensive activity in cat assessed as decrease norepinephrine response at 2.5 mg/kg. The class given is functional, organism-based. Also noted: dose 2.5 mg/kg.
The test system of experiment [5] is Felis catus. Kind of experiment: Antihypertensive activity in cat assessed as change in heart rate at 2.5 mg/kg measured within 5 mins. It is filed as functional.
In experiment [6] the test system is Felis catus. As to the kind of experiment: Antihypertensive activity in cat assessed as change in heart rate at 2.5 mg/kg measured after 5 mins. It is filed as functional.

Calls of active or inactive are those of the source. The rule behind the calls is not given here.

Regarding `COc1ccc(-c2nnc(Cn3c(-c4ccc(O)c(OC)c4)nc(-c4ccccc4)c3-c3ccccc3)o2)cc1`, the Activity in the experiment on Felis catus [1] and in the experiment on Felis catus [2] was -10 mmHg each time. In addition, the result in the experiment on Felis catus [3] was Active. Besides, the result in the experiment on Felis catus [4] was inactive.
As to `NNC(=O)Cn1c(-c2ccccc2O)nc(-c2ccccc2)c1-c1ccccc1`, the results for the Activity in the experiment with Felis catus [1], in the experiment on Felis catus [2] and in the experiment with Felis catus [5] were -22 mmHg, -17 mmHg and -21 bpm, respectively. For the same molecule, the outcome with Felis catus [6], in the experiment with Felis catus [3] and in the experiment with Felis catus [4] was inactive.
`COc1ccc(/C=N/NC(=O)Cn2c(-c3ccccc3)nc(-c3ccccc3)c2-c2ccccc2)cc1`: the Activity in the experiment with Felis catus [1] is -15 mmHg; with Felis catus [5], -8 bpm; in the experiment with Felis catus [6], -11 bpm. Moreover, the outcome in the experiment with Felis catus [3] and in the experiment on Felis catus [4] was inactive.
`NNC(=O)Cn1c(-c2ccccc2)nc(-c2ccccc2)c1-c1ccccc1`: the Activity in the experiment on Felis catus [1] was -25 mmHg; in the experiment on Felis catus [2], -15 mmHg; in the experiment with Felis catus [5] it was -6 bpm; with Felis catus [6] it was -6 bpm. The result with Felis catus [3] and in the experiment on Felis catus [4] was inactive.
Consider `COc1ccc(/C=N/NC(=O)Cn2c(-c3ccc(OC)cc3)nc(-c3ccccc3)c2-c2ccccc2)cc1`, for which the Activity in the experiment on Felis catus [1] and in the experiment with Felis catus [2] was -5 mmHg each time. In addition, the result in the experiment on Felis catus [3] was Active. Moreover, the result in the experiment on Felis catus [4] was inactive.
Take `COc1cc(-c2nc(-c3ccccc3)c(-c3ccccc3)n2CC(=O)NN)ccc1O`: the Activity in the experiment on Felis catus [1] is -30 mmHg; with Felis catus [2] it was -20 mmHg. The result in the experiment on Felis catus [6] and with Felis catus [4] was inactive. Moreover, the result in the experiment on Felis catus [3] was Active.
In the case of `CN(C)c1ccc(-c2nnc(Cn3c(-c4ccccc4O)nc(-c4ccccc4)c3-c3ccccc3)o2)cc1`, the Activity is listed as -15 mmHg in the experiment on Felis catus [1], 5 mmHg in the experiment with Felis catus [2], -5 bpm in the experiment on Felis catus [5] and -5 bpm with Felis catus [6]. Also, the outcome with Felis catus [3] and in the experiment with Felis catus [4] was inactive.
Turning to `COc1ccc(-c2nnc(Cn3c(-c4ccccc4)nc(-c4ccccc4)c3-c3ccccc3)o2)cc1`, the Activity was -50 mmHg with Felis catus [1] and -10 mmHg with Felis catus [2]. In addition, in the experiment on Felis catus [3], the outcome was Active. Further, the result in the experiment with Felis catus [4] was inactive.
Turning to `CN(C)c1ccc(/C=N/NC(=O)Cn2c(-c3ccccc3O)nc(-c3ccccc3)c2-c2ccccc2)cc1`, the Activity in the experiment on Felis catus [1] is -60 mmHg; in the experiment on Felis catus [2], -35 mmHg; in the experiment with Felis catus [5] it was -8 bpm; with Felis catus [6] it was -11 bpm. The result in the experiment on Felis catus [3] was Active. Besides, in the experiment on Felis catus [4], the result was inactive.
On to `COc1ccc(/C=N/NC(=O)Cn2c(-c3ccc(O)c(OC)c3)nc(-c3ccccc3)c2-c2ccccc2)cc1`, for which the Activity with Felis catus [1] is given as -10 mmHg. Also, the outcome in the experiment with Felis catus [3] was Active. The result in the experiment with Felis catus [4] was inactive.
Consider `CN(C)c1ccc(-c2nc(-c3ccccc3)c(-c3ccccc3)n2CC(=O)NN)cc1`, for which the Activity in the experiment on Felis catus [1] is -30 mmHg; in the experiment on Felis catus [2], -30 mmHg; in the experiment with Felis catus [5] it was -18 bpm; in the experiment with Felis catus [6], -27 bpm. For the same molecule, in the experiment on Felis catus [3], the result was Active. In addition, the outcome with Felis catus [4] was inactive.
Take `COc1ccc(/C=N/NC(=O)Cn2c(-c3ccc(N(C)C)cc3)nc(-c3ccccc3)c2-c2ccccc2)cc1`: the Activity with Felis catus [1] was -45 mmHg; in the experiment with Felis catus [2], -50 mmHg; with Felis catus [5] it was -12 bpm; in the experiment on Felis catus [6], -14 bpm. Further, the outcome with Felis catus [3] was Active. In addition, in the experiment on Felis catus [4], the result was inactive.
With `COc1cc(/C=N/NC(=O)Cn2c(-c3ccc(N(C)C)cc3)nc(-c3ccccc3)c2-c2ccccc2)ccc1O`, the Activity in the experiment on Felis catus [1] is reported as -80 mmHg; in the experiment on Felis catus [2], -55 mmHg; in the experiment with Felis catus [5], -14 bpm; in the experiment with Felis catus [6], -20 bpm. Moreover, the result with Felis catus [3] was Active. Moreover, in the experiment on Felis catus [4], the result was inactive.
On to `COc1cc(-c2nnc(Cn3c(-c4ccc(N(C)C)cc4)nc(-c4ccccc4)c3-c3ccccc3)o2)ccc1O`, for which the Activity in the experiment on Felis catus [1] is on record as -50 mmHg; in the experiment on Felis catus [2] it was -20 mmHg; in the experiment on Felis catus [5], -6 bpm; in the experiment with Felis catus [6], -14 bpm. The outcome with Felis catus [3] was Active. For the same molecule, the result with Felis catus [4] was inactive.
Consider `COc1ccc(-c2nnc(Cn3c(-c4ccc(N(C)C)cc4)nc(-c4ccccc4)c3-c3ccccc3)o2)cc1`, for which the Activity in the experiment on Felis catus [1] was -15 mmHg; in the experiment with Felis catus [2] it was -10 mmHg; with Felis catus [5], -6 bpm; in the experiment with Felis catus [6], -10 bpm. The outcome in the experiment with Felis catus [3] and in the experiment with Felis catus [4] was Active.
On to `COc1ccc(-c2nc(-c3ccccc3)c(-c3ccccc3)n2CC(=O)NN)cc1`, for which the Activity with Felis catus [1] was -20 mmHg; in the experiment on Felis catus [2], -5 mmHg; in the experiment with Felis catus [5], -16 bpm; in the experiment with Felis catus [6], -21 bpm. Moreover, the result with Felis catus [3] and in the experiment on Felis catus [4] was inactive.
As for `COc1ccc(-c2nnc(Cn3c(-c4ccc(OC)cc4)nc(-c4ccccc4)c3-c3ccccc3)o2)cc1`, the Activity in the experiment on Felis catus [1] was -10 mmHg; in the experiment with Felis catus [2] it was 10 mmHg. The outcome with Felis catus [3] and in the experiment with Felis catus [4] was Active.
